Key:
Assay type in all cases: physicochemical
[1] = Oscillatory rheology of PEG-OND hydrogels
Experimental: Oscillatory rheology was used to assess the viscoelastic properties of selected PEG-OND hydrogels. […] The truncated cone was then brought in contact with the bis-EONB/4-PEG-SH mixture before setting of the gel by positioning the tool at the measuring position. The sample was inspected for spillovers and trimmed as required. A preliminary preshearing step consisting of 30 seconds at 0.1% strain and ω=0.01 rad/s was performed to ensure good contact with the gel sample. The elastic (storage) and viscous (loss) moduli, G′ and G″, respectively, were then measured as a function of time for a constant strain of 1% and an angular frequency of 1 rad/sec. The ability to store energy is described by G′, while the amount of energy dissipated is related with G″. It was observed that the sample experienced a rapid transformation from an initial state in which G′ was not much larger than G″ to a state in which G′ was clearly predominant, as shown in FIG. 5; this is consistent with gelation. The observed transformation happened in the first few minutes after preparation, even when the hydrogel continued to rigidify for up to 2-3 hours.
The linear regime of this sample was determined by performing an oscillatory strain sweep at 37° C. The frequency sweep shown in the main text was thus performed in the linear region.
[…] In both experiments, G′>>G″.

[2] = Gelation of 4-PEG-SH with OND linkers, gelation time by inversion test
Experimental: PEG-OND hydrogels were prepared by mixing tetravalent thiol-terminated PEG (4-PEG-SH, Mw˜2,500 Da for each arm) at 3.5 weight percent and multivalent OND linkers at equimolar concentration of thiol and electrophile in phosphate buffer containing 7% DMSO by volume (FIG. 42). The reactions were mixed briefly and the gel was allowed to cure at temperature or 37° C. Gelation time was recorded as the point at which the sample no longer flowed upon inversion of the reaction vessel.
Trial gelations were performed by premixing a solution of linker 7a with four-armed thiol-terminated poly(ethylene glycol) (4-PEG-SH. Mn=10,000) in neutral water containing 17% DMSO by volume. The overall concentration of PEG macromer was varied from 0.4 wt % to 8.3 wt % while maintaining an equimolar ratio of thiol to electrophile. Under these conditions, no gels formed on standing at room temperature for five minutes.
Based on empirical observations made in these trials, subsequent gels were prepared at room temperature from 3.5 wt % 4-PEG-SH solutions in phosphate buffers containing 7% DMSO at equimolar concentrations of thiol and OND electrophile. Mixtures were mixed briefly with a vortex mixer, and the reaction vial was periodically tilted or inverted. Gelation time was recorded when the sample no longer flowed and was self-supporting. […] Gelation time at 37° C. was determined by pre-warming 4-PEG-SH macromer and OND stock solutions in a 37° C. water bath. Gel components were combined and mixed briefly by pipetting, and the sample was held in the water bath. Gelation time was determined by the inversion test, as described above.
The labeled protein solutions prepared as described in the previous section were diluted three-fold with pH 7.4 100 mM phosphate buffer and used to dissolve the 4-PEG-SH macromer at 3.76 wt %. This solution was used in an identical manner as pure 4-PEG-SH solution for the purpose of forming PEG-OND hydrogels (FIG. 45). All samples formed self-supporting hydrogels within 1 min after mixing, as determined by the inversion test.

[3] = Calculation of hydrogel mesh size from equilibrium swelling data; conditions: equilibrium-swollen gels
Experimental: Using the calculated molecular weight between crosslinks, Mc, and the method previously described by Canal and Peppas, the hydrogel mesh size was calculated. First, the root-mean-square end-to-end distance of the polymer chains in the network, (r0^2)^1/2, was calculated as follows: (r0^2)^1/2=lCn^1/2n^1/2 (Equation S10) where l is the average bond length in the polymer (0.146 nm for PEG) and Cn is the characteristic ratio of the polymer (4.0 for PEG). The average number of bonds between crosslinks, n is calculated using the following equation:
[formula] where Mc is the average molecular weight between crosslinks, calculated as described in the previous section, and Mr is the molecular weight of the repeating unit for the PEG macromer (44 g/mol). Finally, the mesh size, ξ, is calculated using the following relationship: ξ=v2,s^−1/3(r0^2)^1/2 (Equation S12) where v2, is the partial volume of polymer in the equilibrium swollen hydrogel, and is calculated using the experimentally determined equilibrium weight swelling ratios.

[4] = Erosion of swollen hydrogels (BODIPY erosion probe, time-lapse photography); conditions: 37° C., erosion probe
Text: Degradation behavior of PEG-OND hydrogels under swelling conditions was investigated by labeling 3% of the 4-PEG-SH thiols with a BODIPY fluorophore via maleimide coupling before gelation. Gels prepared from this material are expected to have slightly lower crosslink densities and to degrade sooner when compared to gels formed without the erosion probe (FIG. 19). However, the probe-labeled macromer allowed convenient monitoring and comparison of erosion behavior under conditions relevant for biological applications. An increase in absorbance (504 nm) of the swelling buffer was observed as pieces containing the labeled PEG-thiol components were detached from the gel by rDA fragmentation (FIG. 2). […] Using combinations of linkers, it was possible to produce hydrogels with release profiles tuned between those of gels prepared from a single linker (FIG. 2C).
The 3.76 wt % solution of BODIPY-labeled 4-PEG-SH prepared above was used to form hydrogels using a method identical to unlabeled gels. Briefly, BODIPY-labeled 4-PEG-SH was combined with DMSO stocks of multivalent ONDs at equimolar concentration of thiol and electrophile. […] The absorbance of the supernatant at 504 nm was measured immediately to obtain a baseline measurement (t=0 hours), and the samples were placed into a 37° C. incubator. The absorbance of the swelling supernatant was monitored periodically by removal of 1 mL of buffer into a cuvette and measuring absorbance of the sample at 504 nm. […] This process was repeated for each sample until gel degradation was complete and the absorbance at 504 nm stabilized (100% dye released). In order to estimate the fraction of dye released from the non-degradable gel formed with bi s-EONB 8, a mock endpoint sample consisting of BODIPY-labeled 4-PEG-SH diluted to 3.5 wt % was prepared, and the absorbance at 504 nm was measured. […] The absorbance values collected over the course of the experiment were divided by the absorbance value measured after gel disintegration to obtain fractional dye release versus time. […]
The time at which the glass bead reached the bottom of the tube was recorded. […]

[5] = Equilibrium swelling, gel fraction and Mc (Flory-Rehner) of PEG-OND hydrogels; conditions: for Mc (apparent molecular weight between elastic crosslinks): calculated with the Flory-Rehner equation from swelling results; for Gel Fraction: mass of dry residue post-swelling/input mass of OND and 4-PEG-SH; for Equilibrium Swelling Ratio: mass post-swelling/mass pre-swelling, deionized water, 4° C., 24 hours, n = 3 gels
Experimental: The swelling of the PEG-OND hydrogels in deionized water was measured at 4° C. to prevent significant fragmentation during the experiment. […] An independent experiment measuring soluble fraction thiol content yielded results complementing those obtained gravimetrically (Table S3, and related discussion below). With the knowledge that small molecules can readily permeate swollen PEG-OND hydrogels (see below), detecting and modifying residual thiols in gels prepared from divalent linkers 7a and 8 by swelling in the presence of a fluorogenic OND derivative was attempted (FIG. 15, and related discussion below).
200 μL gels were prepared in pH 7.4 100 mM phosphate buffered saline containing 7% DMSO with 3.5 wt % 4-PEG-SH and the corresponding bis-, tris-, and tetra-ONDs to provide a 1:1 thiol to electrophile ratio, and allowed to cure for 20 minutes at room temperature. The mass of the gels after curing was recorded (Meq) before suspending in 5.5 mL of water. The hydrogels were stored at 4° C. during swelling to prevent significant degradation of the network during the experiment. The increase in mass of the gels was monitored periodically by decanting and blotting the gel gently with a kimwipe to remove excess water before weighing. After 24 hours swelling, when swelling had stabilized, the mass of the gel was recorded (Meq). The equilibrium mass swelling ratio was then determined using the following relationship:
After weighing equilibrium-swelled gels to determine equilibrium mass swelling ratio, the gels were freeze-dried and the residual mass was weighed (Mres). It is expected that buffer salts present in the sample when it was formed were removed by the multiple changes of swelling solvent (pure water). The mass of the remaining residue was compared to the input mass (Min) of 4-PEG-SH macromer and OND-based linker. The ratio of the residual mass and the input mass provides the fraction of material by mass incorporated into the hydrogel network (gel fraction), as shown in the following equation: […]
The apparent molecular weight between elastically-productive crosslinks (Mc) was determined from equilibrium swelling data, collected as described in section VII.1 and applying a modified form of the Flory-Rehner equation for networks formed under dilute conditions:
[formula] where Mn is the number average molecular weight for the polymeric macromer (10,000 g/mol), v is the specific volume of the polymer ([…] for PEG) V1 is the molar volume of solvent used for swelling ([…] for water), χ is the polymer-interaction parameter (0.43 for PEG-H2O and assumed constant for the described experiments). V2, and V2, are the volume fraction of polymer in the equilibrium swollen gel and the relaxed gel after curing, respectively, and are calculated as follows:
[formula] where qw is the weight swelling ratio after equilibrium swelling, qF is the weight swelling ratio after curing, ρp is the density of the polymer (1.12 g/cm^3 for PEG), ρwater=ρcure solvent is the density of swelling solvent and solvent during gel formation (1.00 g/cm^3 for water). The weight swelling ratios qw and qF are determined from data gathered in equilibrium swelling experiments using the following relationships:
[formula] where ms is the mass of the gel after equilibrium swelling, mc is the mass of the gel after curing, and md is the mass of the dried gel, or input mass of polymer and crosslinkers.
Using the formulae above, masses of hydrogel samples recorded after equilibrium swelling, curing, and drying were applied to estimate the apparent molecular weight between crosslinks, which are summarized in Table 1 of the main text. The experimentally observed Mc values for gels formed using divalent OND linkers was lower than theoretical ideal value Mc,ideal. This can be explained by the fact that the Mc,ideal values calculated for these gels (entries 1-5 of Table S1) are greater than the entanglement molecular weight for polyethylene glycol (˜4,400 g/mol). […]

COC(=O)C1=C(C(=O)OC)C2(CNC(=O)CCCC(=O)NCC34C=CC(C)(O3)C(C(=O)OC)=C4C(=O)OC)C=CC1(C)O2 [Linker 7c, Tetramethyl 4,4′-((glutaroylbis(azanediyl))bis(methylene))bis(1-methyl-7-oxabicy-clo[2.2.1]hepta-2,5-diene-2,3-dicarboxylate)]
Gel stability ([1]; gel formed at pH 8.0, 4° C.): fairly stable | Time to revert to the liquid state (crossover of G′ and G″) ([1]; gel formed at pH 8.0, room temperature): ≤ 30 min | Storage modulus G′ versus loss modulus G″ ([1]; pH 8.0, 4° C., strain and frequency sweeps): G′>>G″ | Gelation time ([2]; buffer pH 8.0, room temperature): ≤ 1.5 min | Gel formation ([2]; pH 6.5-7.4): formed only viscous solutions | Gel formation ([2]; pH 7.4): did not form self-supporting gels

COC(=O)C1=C(C(=O)OC)C2(CNC(=O)CC(O)(CC(=O)NCC34C=CC(O3)C(C(=O)OC)=C4C(=O)OC)C(=O)NCC34C=CC(O3)C(C(=O)OC)=C4C(=O)OC)C=CC1O2 (stereo not shown) [Linker 11, Tetramethyl 1,1′-(((2-(2-(((2,3-bis(methoxycarbonyl)-7-oxabicyclo[2.2.1]hepta-2,5-dien-1-yl)methyl)amino)-2-oxoethyl)-2-hydroxysuccinyl)bis(azanediyl))bis (methylene))bis(7′-oxabicyclo[2.2.1]hepta-2,5-diene-2,3-dicarboxylate)]
Calculated mesh size [3]: 13.7 ± 1.3 nm | Gel stability under swelling conditions compared with gels from divalent ONDs [4]: more stable gels | Mc (apparent molecular weight between elastic crosslinks) [5]: 3846 ± 102 g/mol | Gel Fraction [5]: 0.98 ± 0.08 | Equilibrium Swelling Ratio [5]: 1.54 ± 0.07

COC(=O)C1=C(C(=O)OC)C2(CNC(=O)CCOCC(COCCC(=O)NCC34C=CC(O3)C(C(=O)OC)=C4C(=O)OC)(COCCC(=O)NCC34C=CC(O3)C(C(=O)OC)=C4C(=O)OC)COCCC(=O)NCC34C=CC(O3)C(C(=O)OC)=C4C(=O)OC)C=CC1O2 (stereo not shown) [Linker 12, Tetramethyl 1,1′-(8,8-bis((3-(((2,3-bis(methoxycarbonyl)-7-oxabicyclo[2.2.1]hepta-2,5-dien-1-yl)methyl)amino)-3-oxopropoxy)methyl)-3,13-dioxo-6,10-dioxa-2,14-diazapentadecane-1,15-diyl)bis(7-oxabicyclo[2.2.1]hepta-2,5-diene-2,3-dicarboxylate)]
Calculated mesh size [3]: 13.3 ± 0.9 nm | Gel stability under swelling conditions compared with gels from divalent ONDs [4]: more stable gels | Mc (apparent molecular weight between elastic crosslinks) [5]: 3740 ± 95 g/mol | Gel Fraction [5]: 0.96 ± 0.05 | Equilibrium Swelling Ratio [5]: 1.44 ± 0.08
